# Where a name gives a salt, the structure may show the parent alone.
# Target: Bek (Homo sapiens, UniProt P21802)
# Assay: Inhibitory activity against Bek-autophosphorylation using ELISA method in OCUM-2MD3 cells
# Format: cell-based
# Conditions: 1 hr with compound, read-out: IC50 (concentration necessary for inhibiting 50% of Bek-phosphorylation)
# Outline: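 Sandwich ELISA (anti-phosphotyrosine capture, anti-Bek detection, peroxidase, 450 nm) measured Bek autophosphorylation in OCUM-2MD3 lysates after 1 hr compound treatment at 37° C in 0.1% serum medium. IC50 derived by scaling between no-drug (100%) and excess positive control at 1000 nM (0%).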
# Bek, sequence (P21802 431-767 limits assumed): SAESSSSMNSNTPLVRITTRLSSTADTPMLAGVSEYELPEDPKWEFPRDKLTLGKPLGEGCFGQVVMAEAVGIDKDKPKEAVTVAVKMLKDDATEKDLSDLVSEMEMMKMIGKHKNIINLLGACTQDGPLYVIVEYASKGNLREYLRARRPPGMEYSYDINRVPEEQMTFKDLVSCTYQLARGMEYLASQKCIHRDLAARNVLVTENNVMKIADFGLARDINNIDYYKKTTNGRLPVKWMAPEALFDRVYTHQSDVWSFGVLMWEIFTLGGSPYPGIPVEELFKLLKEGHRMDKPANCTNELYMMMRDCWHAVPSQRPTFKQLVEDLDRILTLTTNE
row,IC50 [nM],Structure (SMILES)
1,9.2,"COc1cc2c(Oc3ccc(NC(=O)NCCC(C)(C)C)c(Cl)c3)ccnc2cc1OCCCN(CCO)CCO [Compound 184, 1-[4-(7-{3-[Bis-(2-hydroxy-ethyl)-amino]-propoxy}-6-methoxy-quinolin-4-yloxy)-2-chloro-phenyl]-3-(3,3-dimethyl-butyl)-urea]"
2,248,"COc1cc2c(Oc3ccc(Nc4ccc(C(C)(C)C)cc4)c(F)c3)ccnc2cc1OCCCN1CCC(O)CC1 [Compound 289, 1-(3-{4-[4-(4-Tert-butyl-phenylamino)-3-fluoro-phenoxy]-6-methoxy-quinolin-7-yloxy}-propyl)-piperidin-4-ol]"
3,364,"COCC(C)NCCOc1cc2nccc(Oc3ccc(Nc4ccc(C(C)(C)C)cc4)cc3)c2cc1OC (stereo not drawn) [Compound 363, N1-[4-(Tert-butyl)phenyl]-4-[(6-methoxy-7-{2-[(2-methoxy-1-methylethyl)amino]ethoxy}-4-quinolyl)oxy]aniline]"
4,374,"COc1cc2c(Oc3ccc(Nc4ccc(C(C)(C)C)cc4)cc3)ccnc2cc1OCCNC(C)CO (stereo not drawn) [Compound 353, 2-(2-{4-[4-(4-Tert-butyl-phenylamino)-phenoxy]-6-methoxy-quinolin-7-yloxy}-ethylamino)-propan-1-ol]"
5,178,"COc1cc2c(Oc3ccc(Nc4ccc(C(C)(C)C)cc4)cc3)ccnc2cc1OCC(O)CN1CCN(C)CC1 (stereo not drawn) [Compound 64, 1-{4-[4-(4-Tert-butylphenylamino)phenoxy]-6-methoxyquinolin-7-yloxy}-3-(4-methylpiperazin-1-yl)propan-2-ol]"
6,211,"COc1cc2c(Oc3ccc(Nc4ccc(C(C)(C)C)cc4)cc3Cl)ccnc2cc1OCCCN1CCC(O)CC1 [Compound 309, 1-(3-{4-[4-(4-Tert-butyl-phenylamino)-2-chloro-phenoxy]-6-methoxy-quinolin-7-yloxy}-propyl)-piperidin-4-ol]"
7,359,"COc1cc2c(Oc3ccc(Nc4ccc(C(C)(C)C)cc4)c(F)c3)ccnc2cc1OCCN1CCC(CCO)CC1 [Compound 305, 2-[1-(2-{4-[4-(4-Tert-butyl-phenylamino)-3-fluoro-phenoxy]-6-methoxy-quinolin-7-yloxy}-ethyl)-piperidin-4-yl]-ethanol]"
8,30.6,"COc1cc2nccc(Oc3ccc(NC(=O)NC4CC(C)CC(C)(C)C4)cc3)c2cc1OC (stereo not drawn) [Compound 105, 1-[4-(6,7-Dimethoxy-quinolin-4-yloxy)-phenyl]-3-(3,3,5-trimethyl-cyclohexyl)-urea]"
9,68.5,"COc1cc2c(Oc3ccc(Nc4ccc(C(C)(C)C)cc4)cc3)ccnc2cc1OC[C@H](O)CN1CCOCC1 [Compound 70, (R)-1-{4-[4-(4-Tert-butylphenylamino)phenoxy]-6-methoxyquinolin-7-yloxy}-3-morpholin-4-ylpropan-2-ol]"
10,< 10,"COc1cc2c(Oc3ccc(NC(=O)NCCC(C)(C)C)cc3)ccnc2cc1OCC(O)CN1CCC(N2CCCC2)CC1 (stereo not drawn) [Compound 262, 1-(3,3-Dimethyl-butyl)-3-(4-{7-[2-hydroxy-3-(4-pyrrolidin-1-yl-piperidin-1-yl)-propoxy]-6-methoxy-quinolin-4-yloxy}-phenyl)-urea]"
11,63.8,"COc1cc2nccc(Oc3ccc(NC(=O)NCCC(C)(C)C)c(C(F)(F)F)c3)c2cc1OC [Compound 150, 1-[4-(6,7-Dimethoxy-quinolin-4-yloxy)-2-trifluoromethyl-phenyl]-3-(3,3-dimethyl-butyl)-urea]"
12,2400,"COc1cc2c(Oc3ccc(Nc4ccc(C(C)(C)C)cc4)cc3)ccnc2cc1OCc1csc(C)n1 [Compound 28, (4-Tert-butylphenyl)-{4-[6-methoxy-7-(2-methylthiazol-4-ylmethoxy)quinolin-4-yloxy]phenyl}amine]"
13,3340,"COc1ccc(Nc2ccc(Oc3ccnc4cc(OC)c(OC)cc34)cc2)cc1OC [Compound 43, (3,4-Dimethoxyphenyl)-[4-(6,7-dimethoxyquinolin-4-yloxy)-phenyl]amine]"
14,4580,"COc1cc2nccc(Oc3ccc(Nc4ccc(-c5ccccc5)cc4)cc3)c2cc1OC [Compound 3, Biphenyl-4-yl-[4-(6,7-dimethoxyquinolin-4-yloxy)phenyl]amine]"
15,61.1,"COc1cc2c(Oc3ccc(Nc4ccc(C(C)(C)C)cc4)cc3)ccnc2cc1OC[C@@H](O)CN1CCOCC1 [Compound 71, (s)-1-{4-[4-(4-Tert-butylphenylamino)phenoxy]-6-methoxyquinolin-7-yloxy}-3-morpholin-4-ylpropan-2-ol]"
16,10.6,"COc1cc2c(Oc3ccc(NC(=O)NCCC(C)(C)C)c(Cl)c3)ccnc2cc1OCCN(C)CCO [Compound 177, 1-[2-Chloro-4-(7-{2-[(2-hydroxy-ethyl)-methyl-amino]-ethoxy}-6-methoxy-quinolin-4-yloxy)-phenyl]-3-(3,3-dimethyl-butyl)-urea]"

row,IC50 [nM],Structure (SMILES)
1,32.4,"COCCN1CCC(COc2cc3nccc(Oc4ccc(NC(=O)NCCC(C)(C)C)c(Cl)c4)c3cc2OC)CC1 [Compound 171, 1-(2-Chloro-4-{6-methoxy-7-[1-(2-methoxy-ethyl)-piperidin-4-ylmethoxy]-quinolin-4-yloxy}-phenyl)-3-(3,3-dimethyl-butyl)-urea]"
2,12.3,"CCNCC(O)COc1cc2nccc(Oc3ccc(NC(=O)NCCC(C)(C)C)c(Cl)c3)c2cc1OC (stereo not drawn) [Compound 198, 1-{2-Chloro-4-[7-(3-ethylamino-2-hydroxy-propoxy)-6-methoxy-quinolin-4-yloxy]-phenyl}-3-(3,3-dimethyl-butyl)-urea]"
3,27.9,"COc1cc2nccc(Oc3ccc(NC(=O)NCCC(C)(C)C)cc3)c2cc1OCC(O)CN(C)C (stereo not drawn) [Compound 226, 1-{4-[6-(3-Dimethylamino-2-hydroxy-propoxy)-7-methoxy-quinolin-4-yloxy]-phenyl}-3-(3,3-dimethyl-butyl)-urea]"
4,21,"COc1cc2c(Oc3ccc(NC(=O)NCCC(C)(C)C)cc3)ccnc2cc1OCCN1CC(C)CC(C)C1 (stereo not drawn) [Compound 120, 1-(3,3-Dimethyl-butyl)-3-(4-{7-[2-(3,5-dimethyl-piperidin-1-yl)-ethoxy]-6-methoxy-quinolin-4-yloxy}-phenyl)-urea]"
5,< 10,"COc1cc2c(Oc3ccc(NC(=O)NCCC(C)(C)C)cc3)ccnc2cc1OCCN1CC(C)OC(C)C1 (stereo not drawn) [Compound 119, 1-(3,3-Dimethyl-butyl)-3-(4-{7-[2-(2,6-dimethyl-morpholin-4-yl)-ethoxy]-6-methoxy-quinolin-4-yloxy}-phenyl)-urea]"
6,252,"COc1cc2c(Oc3ccc(Nc4ccc(C(C)(C)C)cc4)c(Cl)c3)ccnc2cc1OCCN(CCO)CCO [Compound 337, 2-[(2-{4-[4-(4-Tert-butyl-phenylamino)-3-chloro-phenoxy]-6-methoxy-quinolin-7-yloxy}-ethyl)-(2-hydroxy-ethyl)-amino]-ethanol]"
7,207,"COc1cc2c(Oc3ccc(Nc4ccc(C(C)(C)C)cc4)cc3)ccnc2cc1OCCCN1CCC(N2CCCC2)CC1 [Compound 237, (4-Tert-butyl-phenyl)-(4-{6-methoxy-7-[3-(4-pyrrolidin-1-yl-piperidin-1-yl)-propoxy]-quinolin-4-yloxy}-phenyl)-amine]"
8,1800,"COc1cc2nccc(Oc3ccc(Nc4ccc(OCc5ccccc5)cc4)cc3)c2cc1OC [Compound 7, (4-Benzyloxyphenyl)-[4-(6,7-dimethoxyquinolin-4-yloxy)phenyl]-amine]"
9,153,"COc1cc2c(Oc3ccc(NC(=O)NCCC(C)(C)C)c(Cl)c3)ccnc2cc1OCCN1C(=O)c2ccccc2C1=O [Compound 173, 1-(2-Chloro-4-{7-[2-(1,3-dioxo-1,3-dihydro-isoindol-2-yl)-ethoxy]-6-methoxy-quinolin-4-yloxy}-phenyl)-3-(3,3-dimethyl-butyl)-urea]"
10,< 10,"COc1cc2c(Oc3ccc(NC(=O)NCCC(C)(C)C)cc3)ccnc2cc1OCCN1CCC(N2CCCCC2)CC1 [Compound 123, 1-{4-[7-(2-[1,4′]bipiperidineyl-1′-yl-ethoxy)-6-methoxy-quinolin-4-yloxy]-phenyl}-3-(3,3-dimethyl-butyl)-urea]"
11,269,"COc1cc2c(Oc3ccc(Nc4ccc(C(C)(C)C)cc4)cc3)ccnc2cc1OCCCN1CCC(N2CCCCC2)CC1 [Compound 236, {4-[7-(3-[1,4′]Bipiperidineyl-1 ′-yl-propoxy)-6-methoxy-quinolin-4-yloxy]-phenyl}-(4-tert-butyl-phenyl)-amine]"
12,< 10,"COc1cc2c(Oc3ccc(NC(=O)NCCC(C)(C)C)c(Cl)c3)ccnc2cc1OCC(O)CN(C)C (stereo not drawn) [Compound 199, 1-{2-Chloro-4-[7-(3-dimethylamino-2-hydroxy-propoxy)-6-methoxy-quinolin-4-yloxy]-phenyl}-3-(3,3-dimethyl-butyl)-urea]"
13,7940,"C=Cc1ccc(Nc2ccc(Oc3ccnc4cc(OC)c(OC)cc34)cc2)cc1 [Compound 2, [4-(6,7-Dimethoxyquinolin-4-yloxy)phenyl]-(4-vinylphenyl)amine]"
14,278,"COc1cc2c(Oc3ccc(Nc4ccc(C(C)(C)C)cc4)cc3)ccnc2cc1OCCN1CCC(OC)CC1 [Compound 280, (4-Tert-butyl-phenyl)-(4-{6-methoxy-7-[2-(4-methoxy-piperidin-1-yl)-ethoxy]-quinolin-4-yloxy}-phenyl)-amine]"
15,10,"COc1cc2c(Oc3ccc(NC(=O)NCCC(C)(C)C)cc3)ccnc2cc1OCCN1CCN(C)CC1 [Compound 113, 1-(3,3-Dimethyl-butyl)-3-(4-{6-methoxy-7-[2-(4-methyl-piperazin-1-yl)-ethoxy]-quinolin-4-yloxy}-phenyl)-urea hydrochloride]"
16,19.9,"COc1cc2nccc(Oc3ccc(NC(=O)NCCC(C)(C)C)cc3)c2cc1OCC(O)CN1CCOCC1 (stereo not drawn) [Compound 225, 1-(3,3-Dimethyl-butyl)-3-{4-[6-(2-hydroxy-3-morpholin-4-yl-propoxy)-7-methoxy-quinolin-4-yloxy]-phenyl}-urea]"

row,Structure (SMILES),IC50 [nM]
1,"COc1cc2c(Oc3ccc(Nc4ccc(C(C)(C)C)cc4)cc3)ccnc2cc1OCCCCN1CCN(C)CC1 [Compound 29, (4-Tert-butylphenyl)-(4-{6-methoxy-7-[4-(4-methylpiperazin-1-yl)butoxy]quinolin-4-yloxy}phenyl)amine]",931

# Source: US7495104B2, “Quinoline or quinazoline derivatives inhibiting auto-phosphorylation of fibroblast growth factor receptors” (Kirin Beer Kabushiki Kaisha, priority 2001, dated 2009)
